Patent US20040002441A1, “Recombination modulators and methods for producing and using the same” (priority 2000, published 2004)

Columns and labels:
[1] = molecular target: T1, Lambda integrase (Int) (Bacteriophage lambda) (UniProt P03700); test: cleavage_in_vitro
T1 sequence: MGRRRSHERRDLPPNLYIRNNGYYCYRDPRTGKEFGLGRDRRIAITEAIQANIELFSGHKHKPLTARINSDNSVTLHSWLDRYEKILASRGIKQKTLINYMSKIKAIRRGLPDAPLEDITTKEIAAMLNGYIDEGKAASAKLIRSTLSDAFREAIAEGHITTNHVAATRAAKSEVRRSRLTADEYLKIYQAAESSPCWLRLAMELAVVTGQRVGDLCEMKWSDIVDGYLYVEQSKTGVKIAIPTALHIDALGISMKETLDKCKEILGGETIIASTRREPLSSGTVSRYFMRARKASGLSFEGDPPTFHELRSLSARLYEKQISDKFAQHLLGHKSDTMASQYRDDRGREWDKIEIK

[2] = molecular target: T2, Vaccinia topoisomerase (type Ib) (Vaccinia virus, UniProt P68698); test: biochemical; type: biochemical
T2 construct: made in house; host or cells: Escherichia coli BL21 infected with bacteriophage λCE6

[3] = molecular target: T2, Vaccinia topoisomerase (type Ib); test: biochemical; conditions: peptide concentrations up to 42 μM
[4] = molecular target: T3, E. coli topoisomerase I (type Ia) (Escherichia coli, UniProt P06612); test: biochemical; conditions: peptide concentrations up to 42 μM
T3 sequence (P06612 1-865): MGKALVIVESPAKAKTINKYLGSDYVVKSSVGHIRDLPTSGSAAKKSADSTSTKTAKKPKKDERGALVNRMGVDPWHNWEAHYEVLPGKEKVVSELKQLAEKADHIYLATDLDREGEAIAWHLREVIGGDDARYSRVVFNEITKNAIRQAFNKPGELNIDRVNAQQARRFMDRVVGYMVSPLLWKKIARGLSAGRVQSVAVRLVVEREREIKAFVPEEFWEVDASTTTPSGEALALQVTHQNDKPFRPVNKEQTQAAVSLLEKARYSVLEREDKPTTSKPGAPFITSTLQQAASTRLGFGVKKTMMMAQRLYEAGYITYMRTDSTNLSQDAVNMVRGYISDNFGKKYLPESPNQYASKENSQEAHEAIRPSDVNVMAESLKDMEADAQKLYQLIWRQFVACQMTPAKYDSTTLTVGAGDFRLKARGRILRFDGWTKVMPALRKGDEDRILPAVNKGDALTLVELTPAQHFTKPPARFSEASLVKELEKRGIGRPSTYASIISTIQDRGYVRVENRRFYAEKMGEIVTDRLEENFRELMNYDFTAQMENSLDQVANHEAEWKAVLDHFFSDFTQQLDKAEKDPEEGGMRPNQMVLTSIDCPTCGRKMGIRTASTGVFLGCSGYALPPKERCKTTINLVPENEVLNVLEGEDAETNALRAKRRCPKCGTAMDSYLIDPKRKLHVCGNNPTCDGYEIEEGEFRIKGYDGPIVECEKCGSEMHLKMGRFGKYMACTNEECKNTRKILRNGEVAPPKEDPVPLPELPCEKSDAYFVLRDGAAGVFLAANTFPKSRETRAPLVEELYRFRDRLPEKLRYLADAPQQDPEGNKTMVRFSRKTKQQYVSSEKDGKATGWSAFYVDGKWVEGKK
Excerpt: E. coli topoisomerase I (TopA) exemplifies the type IA topoisomerase family. Type IA enzymes are mechanistically and structurally unrelated to the topoisomerase IB/tyrosine recombinase superfamily of DNA strand transferases.

excision Holliday junction (attL x attR)
activity ([1]; Int alone HJ resolution, binds weakly alone, 42.4% with IHF, 14.4% with Xis, 58.2% with IHF+Xis, 95.3% with IHF+Xis no spermidine): 7.2%

attL + attR excision substrates
activity ([1]; excision with IHF and Xis, no peptide): > 70%

WCHYNY
effect on transesterification (DNA cleavage) [2]: did not inhibit transesterification | effect on DNA relaxation [3]: no effect | effect on DNA relaxation [4]: no effect
